# Measurements reported in PubChem BioAssay (NCI).
#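 A five-concentration, 48-hour dose response in 96-well plates underlies each endpoint, interpolated linearly between surrounding concentrations. GI50 marks 50% less growth. At the TGI there is no net growth.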
# Tests used:
# Assay in all cases: DTP human tumour cell line panel, 48 h
# [1] = test system: HS 578T breast
# [2] = test system: SNB-19 CNS
# [3] = test system: DU-145 prostate
# [4] = test system: UO-31 renal
# [5] = test system: MDA-MB-231 breast
# [6] = test system: SF-539 CNS
# [7] = test system: OVCAR-8 ovarian
# [8] = test system: MOLT-4 leukemia
# [9] = test system: SN12C renal
# [10] = test system: RXF 393 renal
# [11] = test system: HCT-15 colon
# [12] = test system: SNB-75 CNS
# [13] = test system: HCT-116 colon
# [14] = test system: 786-0 renal
# [15] = test system: IGROV1 ovarian
# [16] = test system: HL-60(TB) leukemia
# [17] = test system: KM12 colon
# [18] = test system: K-562 leukemia
# [19] = test system: MCF7 breast
# [20] = test system: HOP-62 NSCLC
# [21] = test system: NCI/ADR-RES ovarian
# [22] = test system: TK-10 renal
# [23] = test system: SR leukemia
# [24] = test system: NCI-H23 lung
# [25] = test system: U251 CNS
# [26] = test system: COLO 205 colon
# [27] = test system: A549 NSCLC
# [28] = test system: SK-MEL-5 melanoma
# [29] = test system: NCI-H226 lung
# [30] = test system: UACC-257 melanoma
# [31] = test system: HT29 colon
# [32] = test system: HCC-2998 colon
# [33] = test system: M14 melanoma
# [34] = test system: A498 renal
# [35] = test system: T-47D breast
# [36] = test system: SK-OV-3 ovarian
# [37] = test system: SF-268 CNS
# [38] = test system: RPMI-8226 leukemia
# [39] = test system: SW-620 colon
# [40] = test system: ACHN renal
# [41] = test system: SF-295 CNS
# [42] = test system: MALME-3M melanoma
# [43] = test system: OVCAR-5 ovarian
# [44] = test system: NCI-H460 lung
# [45] = test system: OVCAR-4 ovarian
# [46] = test system: EKVX NSCLC
# [47] = test system: SK-MEL-28 melanoma
# [48] = test system: UACC-62 melanoma
# [49] = test system: MDA-MB-435
# [50] = test system: CCRF-CEM leukemia
# [51] = test system: HOP-92 NSCLC
# [52] = test system: BT-549 breast
# [53] = test system: OVCAR-3 ovarian
# [54] = test system: PC-3 prostate
# [55] = test system: CAKI-1 renal
# [56] = test system: NCI-H522 lung
# [57] = test system: LOX IMVI melanoma
smiles,measurement,setting,value
CC(=O)C(C(C)=O)=C1CCCC(O)O1 (centres undefined),TGI,[1],> 100 µM
same,TGI,[2],> 100 µM
same,TGI,[3],> 100 µM
same,TGI,[4],> 100 µM
same,TGI,[5],> 100 µM
same,TGI,[6],> 100 µM
same,TGI,[7],> 100 µM
same,TGI,[8],> 100 µM
same,TGI,[9],> 100 µM
same,TGI,[10],> 100 µM
same,TGI,[11],> 100 µM
same,TGI,[12],> 100 µM
same,TGI,[13],> 100 µM
same,TGI,[14],> 100 µM
same,TGI,[15],> 100 µM
same,TGI,[16],> 100 µM
same,TGI,[17],> 100 µM
same,TGI,[18],> 100 µM
same,TGI,[19],> 100 µM
same,TGI,[20],> 100 µM
same,TGI,[21],> 100 µM
same,TGI,[22],> 100 µM
same,TGI,[23],> 100 µM
same,TGI,[24],> 100 µM
same,TGI,[25],> 100 µM
same,TGI,[26],> 100 µM
same,TGI,[27],> 100 µM
same,TGI,[28],> 100 µM
same,TGI,[29],> 100 µM
same,TGI,[30],> 100 µM
same,TGI,[31],> 100 µM
same,TGI,[32],> 100 µM
same,TGI,[33],> 100 µM
same,TGI,[34],> 100 µM
same,TGI,[35],> 100 µM
same,TGI,[36],> 100 µM
same,TGI,[37],> 100 µM
same,TGI,[38],> 100 µM
same,TGI,[39],> 100 µM
same,TGI,[40],> 100 µM
same,TGI,[41],> 100 µM
same,TGI,[42],> 100 µM
same,TGI,[43],> 100 µM
same,TGI,[44],> 100 µM
same,TGI,[45],> 100 µM
same,TGI,[46],> 100 µM
same,TGI,[47],> 100 µM
same,TGI,[48],> 100 µM
same,TGI,[49],> 100 µM
same,TGI,[50],> 100 µM
COc1cc(C2C=C(c3cccc(NC(C)=O)c3)Nc3ncnn32)cc(OC)c1OC (centres undefined),TGI,[51],> 65.1 µM
same,GI50,[1],0.153 µM
same,TGI,[1],0.413 µM
same,GI50,[2],1.21 µM
same,TGI,[2],> 100 µM
same,GI50,[3],0.44 µM
same,TGI,[3],7.34 µM
same,GI50,[4],33.5 µM
same,TGI,[4],> 100 µM
same,GI50,[5],2.11 µM
same,TGI,[5],> 55.9 µM
same,GI50,[6],0.367 µM
same,TGI,[6],2 µM
same,GI50,[7],0.327 µM
same,TGI,[7],> 100 µM
same,GI50,[52],1.07 µM
same,TGI,[52],> 100 µM
same,GI50,[8],1.65 µM
same,TGI,[8],> 100 µM
same,GI50,[9],0.489 µM
same,TGI,[9],> 100 µM
same,GI50,[10],0.576 µM
same,TGI,[10],> 100 µM
same,GI50,[11],2.02 µM
same,TGI,[11],> 100 µM
same,GI50,[12],4.14 µM
same,TGI,[12],> 100 µM
same,GI50,[13],0.424 µM
same,TGI,[13],> 70.2 µM
same,GI50,[14],0.615 µM
same,TGI,[14],> 100 µM
same,GI50,[15],0.65 µM
same,TGI,[15],> 26.5 µM
same,GI50,[16],0.443 µM
same,TGI,[16],2.28 µM
same,GI50,[17],0.396 µM
same,TGI,[17],> 100 µM
same,GI50,[18],0.447 µM
same,TGI,[18],> 44.1 µM
same,GI50,[19],0.317 µM
same,TGI,[19],> 100 µM
same,GI50,[20],0.554 µM
same,TGI,[20],> 100 µM
same,GI50,[21],8.04 µM
same,TGI,[21],63.7 µM
same,GI50,[22],7.55 µM
same,TGI,[22],> 100 µM
same,GI50,[23],0.437 µM
same,GI50,[24],0.468 µM
same,TGI,[24],> 100 µM
same,GI50,[25],0.395 µM
same,TGI,[25],> 100 µM
same,GI50,[53],0.236 µM
same,TGI,[53],0.645 µM
same,GI50,[26],0.308 µM
same,TGI,[26],1.73 µM
same,GI50,[27],6.68 µM
same,TGI,[27],> 100 µM
same,GI50,[54],1.13 µM
same,TGI,[54],> 100 µM
same,GI50,[28],0.397 µM
same,TGI,[28],22.2 µM
same,GI50,[29],0.667 µM
same,TGI,[29],> 100 µM
same,GI50,[30],> 92.5 µM
same,TGI,[30],> 100 µM
same,GI50,[31],1.38 µM
same,TGI,[31],> 100 µM
same,GI50,[32],0.0566 µM
same,TGI,[32],0.489 µM
same,GI50,[33],0.392 µM
same,TGI,[33],> 100 µM
same,GI50,[34],0.242 µM
same,TGI,[34],4.67 µM
same,GI50,[36],0.903 µM
same,TGI,[36],> 100 µM
same,GI50,[37],0.675 µM
same,TGI,[37],> 100 µM
same,GI50,[38],3.35 µM
same,TGI,[38],32.5 µM
same,GI50,[55],0.573 µM
same,TGI,[55],> 100 µM
same,GI50,[56],1.49 µM
same,TGI,[56],> 100 µM
same,GI50,[39],0.313 µM
same,TGI,[39],> 100 µM
same,GI50,[57],0.596 µM
same,TGI,[57],> 100 µM
same,GI50,[40],3.47 µM
same,TGI,[40],> 100 µM
same,GI50,[41],0.229 µM
same,TGI,[41],> 32.8 µM
same,GI50,[42],0.389 µM
same,TGI,[42],> 100 µM
same,TGI,[43],> 100 µM
same,GI50,[44],2.14 µM
same,TGI,[44],> 100 µM
same,GI50,[45],5.8 µM
same,TGI,[45],> 100 µM
same,GI50,[46],0.737 µM
same,TGI,[46],> 100 µM
same,GI50,[47],0.29 µM
same,TGI,[47],> 100 µM
same,GI50,[48],0.262 µM
same,TGI,[48],> 100 µM
same,GI50,[49],0.117 µM
same,TGI,[49],0.579 µM
same,GI50,[50],0.72 µM
same,TGI,[50],4.16 µM
